Experimental findings from ChEMBL document CHEMBL1145219, “A new strategy to combat Alzheimer's disease. Combining radical-scavenging potential with metal-protein-attenuating ability in one molecule” (Bioorg Med Chem Lett, 2005) are described below.

The assay deals with Cell line. The assay is described as follows: Radical-scavenging potency with metal-protein-attenuating ability in human was determined. Type of assay: functional, cell-based.

Consider “N,N0-propylene bis-(2-acetylpyridine iminato) copper(II)”, for which the EC50 (in general, the concentration at which the effect is half-maximal) (cell line) worked out at 2330 nM.
Under “Homo sapiens, Cell line”, `c1ccc2[nH]c(CN3CCNCCN(Cc4nc5ccccc5[nH]4)CC3)nc2c1` returned an EC50 of 760 nM.
`c1ccc2[nH]c(CN3CCNCCNCC3)nc2c1` registered an EC50 (Homo sapiens, Cell line) of 900 nM.
Under “cell line”, “N,N0-butylene bis-(2-acetylpyridine iminato) copper(II)” came in with an EC50 of 560 nM. This counts as sub-micromolar.
With “N,N0-ethylene bis-(2-acetylpyridine iminato) copper(II)”, a half-maximal effect (cell line) (EC50) was put at 11000 nM.
